Source: US8138191B2, “Inhibitor compounds and cancer treatment methods” (Critical Outcome Technologies Inc., priority 2007, dated 2012)
Like-named read-outs stand apart in the source and are kept apart here.

Columns and labels:
CYP3A = CYP3A (Homo sapiens, UniProt P08684); test: in vitro; conditions: both
HeLa cells = test: Sensitivity to COTI-2 after PTEN siRNA knockdown (alamar Blue), HeLa; format: cell-based, human; conditions: 48 h post-transfection
Procedure: Briefly, HeLa and MCF-7 cells were transfected with 100 nM PTEN siRNA or control non-targeted siRNA at 48 or 144 h prior to exposure to various concentrations of COTI-2.
To assess the capacity of transient siRNA transfection to alter the ability of cells to proliferate in the presence or absence of COTI-2, HeLa or MCF-7 cells (both PTEN-positive) were plated in T25 flasks and transfected 24 h later with PTEN siRNA or non-targeting control siRNA (100 nM in both cases), using Oligofectamine Reagent (Invitrogen) according to the manufacturer's instructions and as previously described (J Pharmacol Exp Ther, 322:123-132). […] PTEN and 18S rRNA mRNA levels were determined by semi-quantitative reverse transcription PCR. […]
For determination of drug sensitivity, HeLa and MCF-7 cells (transfected with PTEN siRNA or control, non-targeted siRNA 48 or 144 hours prior) were re-plated in 96-well plates (VWR, Mississauga, ON, Canada) at 1700 (MCF-7) and 1200 (HeLa) cells per well in a volume of 100 μl of DMEM+10% FBS. […] Cells were then grown for 4 days, and viable cell numbers were assessed by the alamar Blue fluorescence assay using a Wallac Victor^2 multilabel counter (PerkinElmer Wallac, Gaithersburg, Md.). […]

CYP2D6 = CYP2D6 (Homo sapiens, UniProt P10635); test: in vitro; format: in vitro ADME; conditions: both sexes
Procedure: The final incubation volume was 200 μl. […] Peak areas corresponding to metabolite were recorded.

SHP77 cells = test: Western blots of cellular lysates of SHP77 cells treated with COTI-2; format: cell-based, human; conditions: 250 nM
Procedure: To confirm this mechanism SHP77 cells were treated with 250 nM of COTI-2 and incubated for 3 and 6 hours. Phospho-Akt expression was decreased as compared to control at both 3 and 6 hours, with corresponding increases in Akt levels.

[1] = test system: AKT1, AKT2, AKT3 expression in a panel of cell lines; test: Correlation between AKT isoform expression and COTI-2 IC50 in a panel of cell lines; format: cell-based, human; conditions: corrected for total AKT expression
From the text: Cell cultures were maintained under regular tissue culture conditions and passaged 1-2 times a week as recommended by ATCC. For siRNA experiments the manufacturer's conditions for growth and transfection were followed. All siRNA reagents for AKT and AKT2 transfections were obtained from Cell Signaling.
Routine laboratory methods were employed for the production of cellular lysates, protein quantification, SDS-PAGE and western blotting. All antibodies were obtained from Cell Signaling and Abcam. To determine total AKT & AKT2 in DMS114 cells, 5×10^4 cells were incubated for 48 h with 10-100 ng of AKT2 siRNA or a scrambled control oligonucleotide. Cells were lysed and 50 μg of protein was separated by SDS-PAGE and blotted with antibody to total AKT or AKT2.
The expression of AKT1, AKT2, AKT3, total AKT and β-actin were examined in a panel of cell lines representing various types of cancers, with the aim of determining if a correlation exists with the pre-determined IC50's for these cell lines. […] The down-regulation of AKT2 prior to the addition of COTI-2 was confirmed with western blotting in DMS114 cell lines using an antibody to AKT2 (FIG. 35).

A460 = test: in vitro IC50 against cancer cell lines, A460; format: cell-based; conditions: Homo sapiens, 72 h; A460, NSCLC, 3 days
Procedure: Briefly, cells were plated in plastic tissue culture plates and grown under standard conditions for each cell line, in carbon dioxide/oxygen atmosphere in plastic tissue culture plates, in the presence of COTI-2 or COTI-219 compounds at 35° C. for 3 days. Control cultures were treated with vehicle minus compound. Cells were counted after 3 days in culture and at a cell density of no more than 80%. The following cell lines, obtained from the National Cancer Institute, were tested: human SCLC cell lines DMS153, DMS114, SHP77; human NSCLC cell lines H226, A460, A560; human breast cancer cell lines T47D, MCF7; human colon cancer cell line HT29; and, human Leukemia cell lines K562, HL60.

DMS114 cells = test: Cell cycle analysis of DMS114 cells by FACS; format: cell-based, human; conditions: DMS114, 1.5 μM, 24 h
Procedure: Approximately 2×10^5 DMS114 cells were incubated for 24 h with the indicated concentrations of COTI-219. Following incubation with COTI-219 the cells were washed and re-suspended in 0.5 ml of BP Pharmingen Propidium Iodide staining solution (Cat. No. 556463) for FACS analysis in order to determine the changes in the cell cycle.

Sequence of CYP3A (P08684 2-503): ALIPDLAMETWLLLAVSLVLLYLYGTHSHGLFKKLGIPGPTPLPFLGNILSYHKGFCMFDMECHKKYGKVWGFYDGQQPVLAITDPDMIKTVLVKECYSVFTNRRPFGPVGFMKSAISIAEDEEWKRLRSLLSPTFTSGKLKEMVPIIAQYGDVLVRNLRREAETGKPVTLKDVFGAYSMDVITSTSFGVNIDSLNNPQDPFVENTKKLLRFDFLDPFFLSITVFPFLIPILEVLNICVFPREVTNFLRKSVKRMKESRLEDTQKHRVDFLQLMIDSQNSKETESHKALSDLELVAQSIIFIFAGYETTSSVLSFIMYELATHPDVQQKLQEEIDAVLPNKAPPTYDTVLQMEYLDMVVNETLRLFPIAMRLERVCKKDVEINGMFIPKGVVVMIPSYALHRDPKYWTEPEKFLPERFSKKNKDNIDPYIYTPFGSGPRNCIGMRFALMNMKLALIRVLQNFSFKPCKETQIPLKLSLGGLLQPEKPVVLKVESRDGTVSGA
Sequence of CYP2D6 (P10635 whole entry): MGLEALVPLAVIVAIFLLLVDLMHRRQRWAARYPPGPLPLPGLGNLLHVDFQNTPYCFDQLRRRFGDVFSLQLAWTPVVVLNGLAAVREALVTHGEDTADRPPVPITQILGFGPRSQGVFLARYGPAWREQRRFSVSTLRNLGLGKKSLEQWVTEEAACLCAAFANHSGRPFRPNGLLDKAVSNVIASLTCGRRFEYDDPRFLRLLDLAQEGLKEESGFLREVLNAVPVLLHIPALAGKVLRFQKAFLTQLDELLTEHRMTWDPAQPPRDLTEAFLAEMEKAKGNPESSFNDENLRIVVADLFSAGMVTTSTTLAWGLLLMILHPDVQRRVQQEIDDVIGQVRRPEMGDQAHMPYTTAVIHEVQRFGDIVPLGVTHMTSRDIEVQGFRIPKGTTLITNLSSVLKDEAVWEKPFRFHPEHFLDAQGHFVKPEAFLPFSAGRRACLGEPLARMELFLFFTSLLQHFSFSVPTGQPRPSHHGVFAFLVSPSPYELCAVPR

Compound	inhibition at 15 min, 10 µM (CYP3A; human liver microsomes, pH 7.4, probe testosterone (10 µM)) [%]	inhibition at 15 min, 10 µM (CYP3A; liver microsomes, pH 7.4, probe testosterone) [%]	resistance to COTI-2 after PTEN siRNA transfection (HeLa cells)	inhibition at 15 min, 10 µM (CYP2D6; human liver microsomes, pH 7.4, probe dextromethorphan (10 µM), CYP2D6, HLM, dextromethorphan substrate, 1.0E−05 M, read-out: % Inhibition of Control Values) [%]	inhibition at 15 min, 10 µM (CYP2D6; liver microsomes, pH 7.4, probe dextromethorphan, CYP2D6, 10 μM, read-out: percent inhibition) [%]	Caspase 8 level of expression (SHP77 cells)	phospho-STAT3 expression (SHP77 cells)	Phospho-Akt expression (SHP77 cells; 3 and 6 hours)	phospho-Caspase 9 (SHP77 cells; 3 and 6 hrs)	decrease in total STAT3 (SHP77 cells; 6 hrs) [%]	correlation of AKT2 expression with COTI-2 IC50 [1]	IC50 (A460) [µM]	cell cycle effect (DMS114 cells)
S=C(N/N=C1/CCCc2cccnc21)N1CCN(c2ccccn2)CC1 [COTI-2]	-4	< 50	significant increase in the resistance	2	< 50	remained constant	no change	decreased	profound suppression	~30	inversely correlated	7.9	–
CN1CCN(C(=S)NN=C2c3ncccc3-c3cccnc32)CC1 [COTI-219]	–	–	–	–	–	–	–	–	–	–	–	–	cell cycle arrest in G1
